In US5962434A, “Compounds for stimulating nerve growth” (The Johns Hopkins University School of Medicine, priority 1996, dated 1999):
Values belong to the substance of their own block, whether it stands above or below them.

Molecular target: T1, myelin-associated glycoprotein (MAG) (Rattus norvegicus, UniProt P07722)
T1 sequence (P07722 20-626): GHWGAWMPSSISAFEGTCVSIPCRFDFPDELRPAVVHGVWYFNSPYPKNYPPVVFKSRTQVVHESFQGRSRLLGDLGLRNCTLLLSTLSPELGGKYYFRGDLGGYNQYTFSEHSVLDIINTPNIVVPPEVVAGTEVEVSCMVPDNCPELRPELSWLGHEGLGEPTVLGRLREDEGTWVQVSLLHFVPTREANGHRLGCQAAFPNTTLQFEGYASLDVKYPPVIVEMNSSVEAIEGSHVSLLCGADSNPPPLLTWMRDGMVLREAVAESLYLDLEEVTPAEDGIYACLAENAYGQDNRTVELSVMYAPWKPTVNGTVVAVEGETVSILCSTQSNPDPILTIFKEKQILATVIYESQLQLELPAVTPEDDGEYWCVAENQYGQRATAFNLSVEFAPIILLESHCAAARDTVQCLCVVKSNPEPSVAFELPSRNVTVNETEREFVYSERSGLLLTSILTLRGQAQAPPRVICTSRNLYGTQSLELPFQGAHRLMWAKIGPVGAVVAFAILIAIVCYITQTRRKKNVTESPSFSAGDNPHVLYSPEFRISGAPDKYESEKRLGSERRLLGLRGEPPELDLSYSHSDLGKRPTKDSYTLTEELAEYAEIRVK
Assay: Adherence of MAG-transfected COS cells to microwell surfaces on which gangliosides/glycolipids were adsorbed (LDH activity)
Settings: for adhesion of MAG-transfected cells after neuraminidase treatment of the absorbed ganglioside: Vibrio cholerae neuraminidase-treated microwells; for MAG-transfected COS cells added that adhered: ganglioside-absorbed wells; for support of MAG-mediated cell adhesion: structure-function comparison, FIGS. 1C and 2

Substance: NeuAc α2,3 Gal β1,3(NeuAc α2,6) GalNAc β1,4(NeuAc α2,8 NeuAc α2,3)Gal β1,4Glc β1,1'Ceramide [GQ1bα]
adhesion of MAG-transfected cells after neuraminidase treatment of the absorbed ganglioside: completely blocked
MAG-transfected COS cells added that adhered: 70-80%
potency at supporting MAG-mediated cell adhesion relative to GT1b (more potent than GT1b, FIGS. 2 and 3): 8 fold

Substance: NeuAc α2,3 Gal β1,3GalNAc β1,4(NeuAc α2,8 NeuAc α2,3) Gal β1, 4 Glc β1,1'Ceramide [GT1b]
adhesion of MAG-transfected cells after neuraminidase treatment of the absorbed ganglioside: did not support adhesion
adherence of MAG-transfected COS cells to ganglioside-absorbed surface (artificial membrane monolayer with phosphatidylcholine and cholesterol, FIG. 1B): adhered in a concentration-dependent manner
binding compared to GM1b: enhanced binding
adherence of control-transfected COS cells (control-transfected COS cells, FIG. 1B): did not bind
adhesion of MAG-transfected cells to control-treated microwells (control-treated (no neuraminidase) microwells, FIG. 1D): supported adhesion
MAG-transfected COS cells added that adhered: 30-40%
support of MAG-mediated cell adhesion: supported MAG-mediated cell adhesion

binding compared to GM1b: enhanced binding
support of MAG-mediated cell adhesion: supported MAG-mediated cell adhesion
Substance: NeuAc α2,3 Gal β1,3 GalNAc β1,4(NeuAc α2,3)Gal β1, 4Glcβ1,1'Ceramide [GD1a]
